Tests used:
Male Sprague-Dawley rats [1] = test: Locomotor activity after intranasal administration with and without CMC; type: in vivo
[2] = Oral pharmacokinetics in rats, plasma d-amphetamine by ELISA; details: rat; oral; 60 mg/kg
Male Sprague-Dawley rats [3] = test: Horizontal locomotor activity after oral administration; type: in vivo; details: oral gavage, 6 mg/kg amphetamine equivalent
Male Sprague-Dawley rats [4] = test: Locomotor activity after intravenous administration; type: in vivo
Anesthetized Dog = test: Cardiovascular effects after intravenous bolus injection in anesthetized dogs
[5] = 1.0 mg/kg amphetamine equivalent, 1 h
[6] = 1.0 mg/kg, activity above baseline relative to d-amphetamine
[7] = 1.0 mg/kg amphetamine equivalent, 3 h

## C[C@H](N)Cc1ccccc1 [d-amphetamine, reference compound]
Male Sprague-Dawley rats [1]; [5]
  Total Activity Counts (1 h): 858 Counts
  Total Activity Counts Above Baseline: 686 Counts
Male Sprague-Dawley rats [1]; [6]
  Percent d-amphetamine: 100%
[2]
  Animals that died or were sacrificed due to acute symptoms of toxicity: 8 of 12
Male Sprague-Dawley rats [3]; 5 Hours
  Peak of activity (Counts per 0.2 h): 291 Counts per 0.2 h
  Time of Last Count Above 200 per 0.2 h: 2.6 h
  Total Activity Counts: 515 Counts
  Total Activity Counts Above Baseline: 0 Counts
Male Sprague-Dawley rats [3]; 12 Hours
  Peak of activity (Counts per 0.2 h): 223 Counts per 0.2 h
  Time of Last Count Above 100 per 0.2 h: 6.4 h
  Total Activity Counts: 6622 Counts
  Total Activity Counts Above Baseline: 5686 Counts
Male Sprague-Dawley rats [4]; [7]
  Total Activity Counts 3 h: 1659 Counts
  Total Activity Counts Above Baseline: 1355 Counts
Male Sprague-Dawley rats [4]; [6]
  Percent d-amphetamine: 100%
Anesthetized Dog; 0.202 mg/kg, TIME 0
  DAP % Change from respective Time 0: 0%
  LVP % Change from respective Time 0: 0%
  MAP % Change from respective Time 0: 0%
  MAP - mean arterial pressure: 84 mmHg
  SAP % Change from respective Time 0: 0%
  SAP - systolic arterial pressure: 111 mmHg
Anesthetized Dog; 0.202 mg/kg, TIME 5
  DAP % Change from respective Time 0: 117%
  LVP % Change from respective Time 0: 107%
  MAP % Change from respective Time 0: 109%
  MAP - mean arterial pressure: 176 mmHg
  SAP % Change from respective Time 0: 97%
  SAP - systolic arterial pressure: 218 mmHg
Anesthetized Dog; 0.202 mg/kg, TIME 15
  DAP % Change from respective Time 0: 45%
  LVP % Change from respective Time 0: 52%
  MAP % Change from respective Time 0: 49%
  MAP - mean arterial pressure: 125 mmHg
  SAP % Change from respective Time 0: 52%
  SAP - systolic arterial pressure: 168 mmHg
Anesthetized Dog; 0.202 mg/kg, TIME 25
  DAP % Change from respective Time 0: 30%
  LVP % Change from respective Time 0: 37%
  MAP % Change from respective Time 0: 31%
  MAP - mean arterial pressure: 110 mmHg
  SAP % Change from respective Time 0: 34%
  SAP - systolic arterial pressure: 148 mmHg
Anesthetized Dog; 0.202 mg/kg, TIME 30
  DAP % Change from respective Time 0: 20%
  LVP % Change from respective Time 0: 30%
  MAP % Change from respective Time 0: 23%
  MAP - mean arterial pressure: 103 mmHg
  SAP % Change from respective Time 0: 26%
  SAP - systolic arterial pressure: 140 mmHg
Anesthetized Dog; 0.404 mg/kg, TIME 0
  DAP % Change from respective Time 0: 0%
  LVP % Change from respective Time 0: 0%
  MAP % Change from respective Time 0: 0%
  MAP - mean arterial pressure: 101 mmHg
  SAP % Change from respective Time 0: 0%
  SAP - systolic arterial pressure: 139 mmHg
Anesthetized Dog; 0.404 mg/kg, TIME 5
  DAP % Change from respective Time 0: 88%
  LVP % Change from respective Time 0: 79%
  MAP % Change from respective Time 0: 85%
  MAP - mean arterial pressure: 187 mmHg
  SAP % Change from respective Time 0: 73%
  SAP - systolic arterial pressure: 240 mmHg
Anesthetized Dog; 0.404 mg/kg, TIME 15
  DAP % Change from respective Time 0: 44%
  LVP % Change from respective Time 0: 43%
  MAP % Change from respective Time 0: 43%
  MAP - mean arterial pressure: 145 mmHg
  SAP % Change from respective Time 0: 39%
  SAP - systolic arterial pressure: 193 mmHg
Anesthetized Dog; 0.404 mg/kg, TIME 25
  DAP % Change from respective Time 0: 17%
  LVP % Change from respective Time 0: 26%
  MAP % Change from respective Time 0: 20%
  MAP - mean arterial pressure: 122 mmHg
  SAP % Change from respective Time 0: 19%
  SAP - systolic arterial pressure: 166 mmHg
Anesthetized Dog; 0.404 mg/kg, TIME 30
  DAP % Change from respective Time 0: 11%
  LVP % Change from respective Time 0: 22%
  MAP % Change from respective Time 0: 16%
  MAP - mean arterial pressure: 117 mmHg
  SAP % Change from respective Time 0: 16%
  SAP - systolic arterial pressure: 160 mmHg
Anesthetized Dog; 2.02 mg/kg, TIME 0
  DAP % Change from respective Time 0: 0%
  LVP % Change from respective Time 0: 0%
  MAP % Change from respective Time 0: 0%
  MAP - mean arterial pressure: 115 mmHg
  SAP % Change from respective Time 0: 0%
  SAP - systolic arterial pressure: 158 mmHg
Anesthetized Dog; 2.02 mg/kg, TIME 5
  DAP % Change from respective Time 0: 48%
  LVP % Change from respective Time 0: 40%
  MAP % Change from respective Time 0: 47%
  MAP - mean arterial pressure: 169 mmHg
  SAP % Change from respective Time 0: 44%
  SAP - systolic arterial pressure: 228 mmHg
Anesthetized Dog; 2.02 mg/kg, TIME 15
  DAP % Change from respective Time 0: 23%
  LVP % Change from respective Time 0: 24%
  MAP % Change from respective Time 0: 23%
  MAP - mean arterial pressure: 142 mmHg
  SAP % Change from respective Time 0: 24%
  SAP - systolic arterial pressure: 196 mmHg
Anesthetized Dog; 2.02 mg/kg, TIME 25
  DAP % Change from respective Time 0: 17%
  LVP % Change from respective Time 0: 19%
  MAP % Change from respective Time 0: 17%
  MAP - mean arterial pressure: 135 mmHg
  SAP % Change from respective Time 0: 20%
  SAP - systolic arterial pressure: 189 mmHg
Anesthetized Dog; 2.02 mg/kg, TIME 30
  DAP % Change from respective Time 0: 13%
  LVP % Change from respective Time 0: 16%
  MAP % Change from respective Time 0: 12%
  MAP - mean arterial pressure: 129 mmHg
  SAP % Change from respective Time 0: 16%
  SAP - systolic arterial pressure: 183 mmHg
Anesthetized Dog; dog, IV bolus, 0.202 mg/kg d-amphetamine, equimolar to 0.5 mg/kg L-lysine-d-amphetamine
  Effect on mean blood pressure after the first (lowest) dose: acute doubling of the mean BP
